From the NIST ThermoML archive (doi:10.1016/j.jct.2011.07.014)

Conditions: Liquid, Transpiration method

CC(=O)CCC(=O)O [4-oxopentanoic acid]
Conditions | vapor or sublimation pressure [kPa]
328.4 K | 0.00705
333.4 K | 0.01045
338.3 K | 0.01414
343.3 K | 0.02096
343.4 K | 0.02019
348.3 K | 0.02702
353.3 K | 0.0381
358.3 K | 0.05278
358.4 K | 0.05148
363.4 K | 0.07587
368.4 K | 0.101
373.4 K | 0.1349
